Measurements from the NIST ThermoML archive (doi:10.1021/je200784y).

Settings: Liquid, Ebulliometric method (Recirculating still)

CCOC(=O)OCC [diethyl carbonate]
Settings | vapor or sublimation pressure [kPa]
354.68 K | 22.56
357.44 K | 25.03
359.95 K | 27.54
362.26 K | 29.99
364.46 K | 32.51
366.57 K | 35.05
368.45 K | 37.52
370.28 K | 40.03
372.04 K | 42.49
373.73 K | 45.05
375.26 K | 47.47
376.81 K | 50.04
378.22 K | 52.46
379.67 K | 55.03
381.03 K | 57.56
382.32 K | 59.95
383.6 K | 62.52
384.81 K | 64.97
385.98 K | 67.44
387.13 K | 70.02
388.28 K | 72.51
389.32 K | 74.96
390.35 K | 77.43
391.39 K | 79.97
392.45 K | 82.52
393.34 K | 84.84
394.36 K | 87.52
395.23 K | 89.81
396.21 K | 92.53
397.03 K | 94.89
397.96 K | 97.54
398.81 K | 100.03
399.27 K | 101.38
